Data as given in patent US20110166121A1 (LG LIFE SCIENCES LTD., priority 2008, published 2011).
Where two headings read alike, the source gives them in different places.

What was measured:
[1] = system: Human platelet aggregation caused by ADP; assay: Inhibition of ADP-induced platelet aggregation (Mimic-human PRP); format: cell-based; details: 20 μM ADP, human platelet concentrate diluted with PPP, absorption at 595 nm
Procedure, shortened: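 Ki came from non-linear sigmoidal fits of inhibition, measured as the 3-min rise in absorbance at 595 nm after 20 μM ADP, relative to 0/20 μM ADP controls. Platelets (3–4×10^8/mL in PPP-diluted human PRP) were exposed to 0.01–30 μM compound for 20 min at room temperature beforehand.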

Human P2Y12 receptor = biological target: T1, Human P2Y12 receptor (Homo sapiens, UniProt Q9H244); assay: Human P2Y12 receptor cell membrane binding assay with [3H] 2-Mes-ADP
T1 construct: expressed in transfected cells; host or cells: HEK cells
Procedure, shortened: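 Competition binding used 1 nM [3H]2-MeS-ADP on P2Y12-expressing HEK cell membranes for 1 h at room temperature, followed by filtration and scintillation counting.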

[2] = 1 nM [3H] 2-Mes-ADP, membranes of HEK cells expressing P2Y12 receptor, read-out: Binding activity (IC50)

T1 sequence (Q9H244 whole entry): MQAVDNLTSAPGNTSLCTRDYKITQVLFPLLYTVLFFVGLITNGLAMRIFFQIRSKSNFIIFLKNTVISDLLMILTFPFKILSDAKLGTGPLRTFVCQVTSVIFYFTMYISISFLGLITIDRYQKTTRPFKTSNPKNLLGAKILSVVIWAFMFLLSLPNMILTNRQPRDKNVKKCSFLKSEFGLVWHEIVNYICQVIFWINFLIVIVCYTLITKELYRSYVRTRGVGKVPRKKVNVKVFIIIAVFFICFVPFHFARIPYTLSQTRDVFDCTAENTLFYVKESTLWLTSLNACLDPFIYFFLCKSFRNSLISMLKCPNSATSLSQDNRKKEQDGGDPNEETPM

| Structure (SMILES) | Ki [1] [nM] | IC50 (Human P2Y12 receptor; [2]) [nM] | IC50 (Human P2Y12 receptor) [nM] |
| --- | --- | --- | --- |
| CCCc1cc2c(N3CCn4c(nnc4C(F)(F)F)C3)nc(N3CCNc4ccccc43)nc2s1 [Example 1-68, 1-[6-Propyl-4-(3-trifluoromethyl-5,6-dihydro-8H-[1,2,4]triazolo[4,3-a]pyrazin-7-yl)-thieno[2,3-d]pyrimidin-2-yl]-1,2,3,4-tetrahydro-quinoxaline] | 430 | 100 | – |
| CCCc1cc2c(N3CCn4c(nnc4C(F)(F)F)C3)nc(N3CCC(N)CC3)nc2s1 [Example 1-69, 1-[6-Propyl-4-(3-trifluoromethyl-5,6-dihydro-8H-[1,2,4]triazolo[4,3-a]pyrazin-7-yl)-thieno[2,3-d]pyrimidin-2-yl]-piperidin-4-ylamine] | 300 | 82 | – |
| CCCc1cc2c(N3CCn4c(nnc4C(F)(F)F)C3)nc(N3CCCC(N)C3)nc2s1 (centres unmarked) [Example 1-70, 1-[6-Propyl-4-(3-trifluoromethyl-5,6-dihydro-8H-[1,2,4]triazolo[4,3-a]pyrazin-7-yl)-thieno[2,3-d]pyrimidin-2-yl]-piperidin-3-ylamine] | 110 | 167 | – |
| CCCc1cc2c(N3CCn4c(nnc4C(F)(F)F)C3)nc(N3CCc4ccccc43)nc2s1 [Example 1-71, 7-[2-(2,3-Dihydro-indol-1-yl)-6-propyl-thieno[2,3-d]pyrimidin-4-yl]-3-trifluoromethyl-5,6,7,8-tetrahydro-[1,2,4]triazolo[4,3-a]pyrazine] | > 4000 | 526 | – |
| CCCc1cc2c(N3CCn4c(nnc4C(F)(F)F)C3)nc(N3Cc4ccccc4C3)nc2s1 [Example 1-72, 7-[2-(1,3-Dihydro-isoindol-2-yl)-6-propyl-thieno[2,3-d]pyrimidin-4-yl]-3-trifluoromethyl-5,6,7,8-tetrahydro-[1,2,4]triazolo[4,3-a]pyrazine] | > 4000 | 517 | – |
| CCCc1cc2c(N3CCn4c(nnc4C(F)(F)F)C3)nc(-n3ccc4ccccc43)nc2s1 [Example 1-73, 7-(2-Indol-1-yl-6-propyl-thieno[2,3-d]pyrimidin-4-yl)-3-trifluoromethyl-5,6,7,8-tetrahydro-[1,2,4]triazolo[4,3-a]pyrazine] | > 4000 | 360 | – |
| CCCc1cc2c(N3CCn4c(nnc4C(F)(F)F)C3)nc(N3CCn4c(nnc4C(F)(F)F)C3)nc2s1 [Example 1-74, 7,7′-(6-propylthieno[2,3-d]pyrimidine-2,4-diyl)bis[3-(trifluoromethyl)-5,6,7,8-tetrahydro[1,2,4]triazolo[4,3-a]pyrazine]] | 40 | 33 | – |
| CCCc1cc2c(N3CCn4c(nnc4C(F)(F)F)C3)nc(N3CCn4cnnc4C3)nc2s1 [Example 1-75, 7-[2-(5,6-Dihydro-8H-[1,2,4]triazolo[4,3-a]pyrazin-7-yl)-6-propyl-thieno[2,3-d]pyrimidin-4-yl]-3-trifluoromethyl-5,6,7,8-tetrahydro-[1,2,4]triazolo[4,3-a]pyrazine] | 7 | 32 | – |
| CCCc1cc2c(N3CCn4c(nnc4C(F)(F)F)C3)nc(N3CCn4ccnc4C3)nc2s1 [Example 1-77, 7-[2-(5,6-Dihydro-8H-imidazo[1,2-a]pyrazin-7-yl)-6-propyl-thieno[2,3-d]pyrimidin-4-yl]-3-trifluoromethyl-5,6,7,8-tetrahydro-[1,2,4]triazolo[4,3-a]pyrazine] | 60 | 47 | – |
| CCCc1cc2c(N3CCn4c(nnc4C(F)(F)F)C3)nc(N3CCn4cc(C(F)(F)F)nc4C3)nc2s1 [Example 1-78, 7-[6-Propyl-2-(2-trifluoromethyl-5,6-dihydro-8H-imidazo[1,2-a]pyrazin-7-)-thieno[2,3-d]pyrimidin-4-yl]-3-trifluoromethyl-5,6,7,8-tetrahydro-[1,2,4]triazolo[4,3-a]pyrazine] | 200 | 110 | – |
| CCCc1cc2c(N3CCn4c(nnc4C(F)(F)F)C3)nc(N3CCc4sccc4C3)nc2s1 [Example 1-79, 7-[2-(6,7-Dihydro-4H-thieno[3,2-c]pyridin-5-yl)-6-propyl-thieno[2,3-d]pyrimidin-4-yl]-3-trifluoromethyl-5,6,7,8-tetrahydro-[1,2,4]triazolo[4,3-a]pyrazine] | 1250 | 370 | – |
| CCCc1cc2c(N3CCn4c(nnc4C(F)(F)F)C3)nc(NC(Cc3ccc(O)cc3)C(=O)O)nc2s1 (centres unmarked) [Example 1-81, 3-(4-Hydroxy-phenyl)-2-[6-propyl-4-(3-trifluoromethyl-5,6-dihydro-8H-[1,2,4]triazolo[4,3-a]pyrazin-7-yl)-thieno[2,3-d]pyrimidin-2-ylamino]-propionic acid] | 2300 | 320 | – |
| CCCc1cc2c(N3CCn4c(nnc4C(F)(F)F)C3)nc(N3CCN(C(=O)C(F)(F)F)CC3)nc2s1 [Example 1-82, 2,2,2-Trifluoro-1-{4-[6-propyl-4-(3-trifluoromethyl-5,6-dihydro-8H-[1,2,4]triazolo[4,3-a]pyrazin-7-yl)-thieno[2,3-d]pyrimidin-2-yl]-piperazin-1-yl}-ethanone] | > 4000 | 14300 | – |
| CCCc1cc2c(N3CCn4c(nnc4C(F)(F)F)C3)nc(NC3CNC3)nc2s1 [Example 1-83, Azetidin-3-yl-[6-propyl-4-(3-trifluoromethyl-5,6-dihydro-8H-[1,2,4]triazolo[4,3-a]pyrazin-7-yl)-thieno[2,3-d]pyrimidin-2-yl]-amine] | 7 | 320 | – |
| CCCc1cc2c(N3CCn4c(nnc4C(F)(F)F)C3)nc(N3CC(OC(C)=O)C3)nc2s1 [Example 1-84, Acetic Acid 1-[6-propyl-4-(3-trifluoromethyl-5,6-dihydro-8H-[1,2,4]triazolo[4,3-a]pyrazin-7-yl)-thieno[2,3-d]pyrimidin-2-yl]-azetidin-3-yl ester] | 73 | 160 | – |
| CCCc1cc2c(N3CCn4c(nnc4C(F)(F)F)C3)nc(N3CC(O)C3)nc2s1 [Example 1-85, 1-[6-Propyl-4-(3-trifluoromethyl-5,6-dihydro-8H-[1,2,4]triazolo[4,3-a]pyrazin-7-yl)-thieno[2,3-d]pyrimidin-2-yl]-azetidin-3-ol] | 14 | 96 | – |
| CCCc1cc2c(N3CCn4c(nnc4C(F)(F)F)C3)nc(N3CC[C@H](C(N)=O)C3)nc2s1 [Example 1-86, (S)-1-[6-Propyl-4-(3-trifluoromethyl-5,6-dihydro-8H-[1,2,4]triazolo[4,3-a]pyrazin-7-yl)-thieno[2,3-d]pyrimidin-2-yl]-pyrrolidine-3-carboxylic acid amide] | 11 | 24 | – |
| CCCc1cc2c(N3CCn4c(nnc4C(F)(F)F)C3)nc(N3CC[C@H](C(=O)NC)C3)nc2s1 [Example 1-87, (S)-1-[6-Propyl-4-(3-trifluoromethyl-5,6-dihydro-8H-[1,2,4]triazolo[4,3-a]pyrazin-7-yl)-thieno[2,3-d]pyrimidin-2-yl]-pyrrolidine-3-carboxylic acid methylamide] | 11 | 67 | – |
| CCCc1cc2c(N3CCn4c(nnc4C(F)(F)F)C3)nc(N3CC[C@H](C(=O)NO)C3)nc2s1 [Example 1-89, (S)-1-[6-Propyl-4-(3-trifluoromethyl-5,6-dihydro-8H-[1,2,4]triazolo[4,3-a]pyrazin-7-yl)-thieno[2,3-d]pyrimidin-2-yl]-pyrrolidine-3-carboxylic acid hydroxyamide] | 12 | 55 | – |
| CCCc1cc2c(N3CCn4c(nnc4C(F)(F)F)C3)nc(N3CC[C@H](C(=O)NCCO)C3)nc2s1 [Example 1-90, (S)-1-[6-Propyl-4-(3-trifluoromethyl-5,6-dihydro-8H-[1,2,4]triazolo[4,3-a]pyrazin-7-yl)-thieno[2,3-d]pyrimidin-2-yl]-pyrrolidine-3-carboxylic acid (2-hydroxy-ethyl)-amide] | 50 | 110 | – |
| CCCc1cc2c(N3CCn4c(nnc4C(F)(F)F)C3)nc(N3CC[C@H](C(=O)NCCN)C3)nc2s1 [Example 1-91, (S)-1-[6-Propyl-4-(3-trifluoromethyl-5,6-dihydro-8H-[1,2,4]triazolo[4,3-a]pyrazin-7-yl)-thieno[2,3-d]pyrimidin-2-yl]-pyrrolidine-3-carboxylic acid (2-amino-ethyl)-amide] | 140 | 190 | – |
| CCCc1cc2c(N3CCn4c(nnc4C(F)(F)F)C3)nc(N3CC3C(=O)OC)nc2s1 (centres unmarked) [Example 1-96, 1-[6-Propyl-4-(3-trifluoromethyl-5,6-dihydro-8H-[1,2,4]triazolo[4,3-a]pyrazin-7-yl)-thieno[2,3-d]pyrimidin-2-yl]-aziridine-2-carboxylic acid methyl ester] | 21 | – | 630 |
| CCCc1cc2c(N3CCn4c(nnc4C(F)(F)F)C3)nc(N3CCC(N(C)C)C3)nc2s1 (centres unmarked) [Example 1-97, Dimethyl-{1-[6-propyl-4-(3-trifluoromethyl-5,6-dihydro-8H-[1,2,4]triazolo[4,3-a]pyrazin-7-yl)-thieno[2,3-d]pyrimidin-2-yl]-pyrrolidin-3-yl}-amine] | 13 | 140 | – |
| CCCc1cc2c(N3CCn4c(nnc4C(F)(F)F)C3)nc(NC3CCNC3)nc2s1 (centres unmarked) [Example 1-98, [6-Propyl-4-(3-trifluoromethyl-5,6-dihydro-8H-[1,2,4]triazolo[4,3-a]pyrazin-7-yl)-thieno[2,3-d]pyrimidin-2-yl]-pyrrolidin-3-yl-amine] | 32 | 470 | – |
| CCCc1cc2c(N3CCn4c(nnc4C(F)(F)F)C3)nc(N3CC[C@H](NCCO)C3)nc2s1 [Example 1-99, 2-{(S)-1-[6-Propyl-4-(3-trifluoromethyl-5,6-dihydro-8H-[1,2,4]triazolo[4,3-a]pyrazin-7-yl)-thieno[2,3-d]pyrimidin-2-yl]-pyrrolidin-3-ylamino}-ethanol] | 43 | 130 | – |
